Paper PMC11842588, “A first-in-class selective inhibitor of ERK1/2 and ERK5 overcomes drug resistance with a single-molecule strategy” (Signal Transduction and Targeted Therapy, 2025)

How the values were obtained:
Experiment in all cases: Kinase profiling
Format in all cases: biochemical
Txk(h) = target: T1, Txk(h) (Homo sapiens, UniProt P42681)
T1 construct: purchased Eurofins Cerep SA (KinaseProfiler)
Description: (§1) 380 kinases inhibitory activities of SKLB-D18 were conducted by Eurofins Cerep SA. The result was illustrated by kinase tree (http://www.kinhub.org/kinmap/).

PAK1(h) = target: T2, PAK1(h) (Homo sapiens, UniProt Q13153)
T2 construct: purchased Eurofins Cerep SA (KinaseProfiler)
Description: as §1

FAK(h) = target: T3, FAK(h) (Homo sapiens, UniProt Q05397)
T3 construct: purchased Eurofins Cerep SA (KinaseProfiler)
Description: as §1

CDK3/cyclinE(h) = target: T4, CDK3/cyclinE(h) (Homo sapiens, UniProt Q00526)
T4 construct: purchased Eurofins Cerep SA (KinaseProfiler)
Description: as §1

PIP5K1a(h) = target: T5, PIP5K1a(h) (Homo sapiens, UniProt Q99755)
T5 construct: purchased Eurofins Cerep SA (KinaseProfiler)
Description: as §1

Wee1B(h) = target: T6, Wee1B(h) (Homo sapiens, UniProt P0C1S8)
T6 construct: purchased Eurofins Cerep SA (KinaseProfiler)
Description: as §1

ACTR2(h) = target: T7, ACTR2(h) (Homo sapiens, UniProt P27037)
T7 construct: purchased Eurofins Cerep SA (KinaseProfiler)
Description: as §1

MST1(h) = target: T8, MST1(h) (Homo sapiens, UniProt Q13043)
T8 construct: purchased Eurofins Cerep SA (KinaseProfiler)
Description: as §1

BMPR2(h) = target: T9, BMPR2(h) (Homo sapiens, UniProt Q13873)
T9 construct: purchased Eurofins Cerep SA (KinaseProfiler)
Description: as §1

PKCι(h) = target: T10, PKCι(h) (Homo sapiens, UniProt P41743)
T10 construct: purchased Eurofins Cerep SA (KinaseProfiler)
Description: as §1

PAK5(h) = target: T11, PAK5(h) (Homo sapiens, UniProt Q9P286)
T11 construct: purchased Eurofins Cerep SA (KinaseProfiler)
Description: as §1

NDR1(h) = target: T12, NDR1(h) (Homo sapiens, UniProt Q15208)
T12 construct: purchased Eurofins Cerep SA (KinaseProfiler)
Description: as §1

ZIPK(h) = target: T13, ZIPK(h) (Homo sapiens, UniProt O43293)
T13 construct: purchased Eurofins Cerep SA (KinaseProfiler)
Description: as §1

SLK(h) = target: T14, SLK(h) (Homo sapiens, UniProt Q9H2G2)
T14 construct: purchased Eurofins Cerep SA (KinaseProfiler)
Description: as §1

JAK2(h) = target: T15, JAK2(h) (Homo sapiens, UniProt O60674)
T15 construct: purchased Eurofins Cerep SA (KinaseProfiler)
Description: as §1

IRR(h) = target: T16, IRR(h) (Homo sapiens, UniProt P14616)
T16 construct: purchased Eurofins Cerep SA (KinaseProfiler)
Description: as §1

ROCK-II(h) = target: T17, ROCK-II(h) (Homo sapiens, UniProt O75116)
T17 construct: purchased Eurofins Cerep SA (KinaseProfiler)
Description: as §1

PKA(h) = target: T18, PKA(h) (Homo sapiens, UniProt P17612)
T18 construct: purchased Eurofins Cerep SA (KinaseProfiler)
Description: as §1

CK2α2(h) = target: T19, CK2α2(h) (Homo sapiens, UniProt P19784)
T19 construct: purchased Eurofins Cerep SA (KinaseProfiler)
Description: as §1

ATM(h) = target: T20, ATM(h) (Homo sapiens, UniProt Q13315)
T20 construct: purchased Eurofins Cerep SA (KinaseProfiler)
Description: as §1

PhKγ2(h) = target: T21, PhKγ2(h) (Homo sapiens, UniProt P15735)
T21 construct: purchased Eurofins Cerep SA (KinaseProfiler)
Description: as §1

IR(h), activated = target: T22, IR(h), activated (Homo sapiens, UniProt P06213)
T22 construct: purchased Eurofins Cerep SA (KinaseProfiler)
Description: as §1

BIKe(h) = target: T23, BIKe(h) (Homo sapiens, UniProt Q9NSY1)
T23 construct: purchased Eurofins Cerep SA (KinaseProfiler)
Description: as §1

MAP4K5(h) = target: T24, MAP4K5(h) (Homo sapiens, UniProt Q9Y4K4)
T24 construct: purchased Eurofins Cerep SA (KinaseProfiler)
Description: as §1

CDK17/cyclinY(h) = target: T25, CDK17/cyclinY(h) (Homo sapiens, UniProt Q00537)
T25 construct: purchased Eurofins Cerep SA (KinaseProfiler)
Description: as §1

CDK2/cyclinA(h) = target: T26, CDK2/cyclinA(h) (Homo sapiens, UniProt P24941)
T26 construct: purchased Eurofins Cerep SA (KinaseProfiler)
Description: as §1

ALK1(h) = target: T27, ALK1(h) (Homo sapiens, UniProt P37023)
T27 construct: purchased Eurofins Cerep SA (KinaseProfiler)
Description: as §1

CLK2(h) = target: T28, CLK2(h) (Homo sapiens, UniProt P49760)
T28 construct: purchased Eurofins Cerep SA (KinaseProfiler)
Description: as §1

SRPK1(h) = target: T29, SRPK1(h) (Homo sapiens, UniProt Q96SB4)
T29 construct: purchased Eurofins Cerep SA (KinaseProfiler)
Description: as §1

MLK4(h) = target: T30, MLK4(h) (Homo sapiens, UniProt Q5TCX8)
T30 construct: purchased Eurofins Cerep SA (KinaseProfiler)
Description: as §1

Axl(h) = target: T31, Axl(h) (Homo sapiens, UniProt P30530)
T31 construct: purchased Eurofins Cerep SA (KinaseProfiler)
Description: as §1

Flt1(h) = target: T32, Flt1(h) (Homo sapiens, UniProt P17948)
T32 construct: purchased Eurofins Cerep SA (KinaseProfiler)
Description: as §1

ASK1(h) = target: T33, ASK1(h) (Homo sapiens, UniProt Q99683)
T33 construct: purchased Eurofins Cerep SA (KinaseProfiler)
Description: as §1

CK2(h) = target: T34, CK2(h) (Homo sapiens, UniProt P68400)
T34 construct: purchased Eurofins Cerep SA (KinaseProfiler)
Description: as §1

CaMKIV(h) = target: T35, CaMKIV(h) (Homo sapiens, UniProt Q16566)
T35 construct: purchased Eurofins Cerep SA (KinaseProfiler)
Description: as §1

[1] = target: T36, PI3 Kinase (p110b/p85a)(h) (Homo sapiens, UniProt P42338)
T36 construct: purchased Eurofins Cerep SA (KinaseProfiler)
Description: as §1

NEK11(h) = target: T37, NEK11(h) (Homo sapiens, UniProt Q8NG66)
T37 construct: purchased Eurofins Cerep SA (KinaseProfiler)
Description: as §1

eEF-2K(h) = target: T38, eEF-2K(h) (Homo sapiens, UniProt O00418)
T38 construct: purchased Eurofins Cerep SA (KinaseProfiler)
Description: as §1

PKCε(h) = target: T39, PKCε(h) (Homo sapiens, UniProt Q02156)
T39 construct: purchased Eurofins Cerep SA (KinaseProfiler)
Description: as §1

EphB3(h) = target: T40, EphB3(h) (Homo sapiens, UniProt P54753)
T40 construct: purchased Eurofins Cerep SA (KinaseProfiler)
Description: as §1

mTOR/FKBP12(h) = target: T41, mTOR/FKBP12(h) (Homo sapiens, UniProt P42345)
T41 construct: purchased Eurofins Cerep SA (KinaseProfiler)
Description: as §1

T19 sequence (P19784 whole entry): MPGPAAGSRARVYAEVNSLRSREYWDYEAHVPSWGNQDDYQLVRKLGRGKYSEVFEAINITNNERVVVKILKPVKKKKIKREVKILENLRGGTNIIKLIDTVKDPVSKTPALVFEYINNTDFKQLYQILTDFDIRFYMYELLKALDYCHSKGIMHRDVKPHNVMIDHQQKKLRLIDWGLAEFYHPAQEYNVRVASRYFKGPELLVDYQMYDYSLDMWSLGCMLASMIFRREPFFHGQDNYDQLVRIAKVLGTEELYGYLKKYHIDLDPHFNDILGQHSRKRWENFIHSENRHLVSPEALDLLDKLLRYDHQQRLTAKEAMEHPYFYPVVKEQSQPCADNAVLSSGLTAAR
T28 sequence (P49760 whole entry): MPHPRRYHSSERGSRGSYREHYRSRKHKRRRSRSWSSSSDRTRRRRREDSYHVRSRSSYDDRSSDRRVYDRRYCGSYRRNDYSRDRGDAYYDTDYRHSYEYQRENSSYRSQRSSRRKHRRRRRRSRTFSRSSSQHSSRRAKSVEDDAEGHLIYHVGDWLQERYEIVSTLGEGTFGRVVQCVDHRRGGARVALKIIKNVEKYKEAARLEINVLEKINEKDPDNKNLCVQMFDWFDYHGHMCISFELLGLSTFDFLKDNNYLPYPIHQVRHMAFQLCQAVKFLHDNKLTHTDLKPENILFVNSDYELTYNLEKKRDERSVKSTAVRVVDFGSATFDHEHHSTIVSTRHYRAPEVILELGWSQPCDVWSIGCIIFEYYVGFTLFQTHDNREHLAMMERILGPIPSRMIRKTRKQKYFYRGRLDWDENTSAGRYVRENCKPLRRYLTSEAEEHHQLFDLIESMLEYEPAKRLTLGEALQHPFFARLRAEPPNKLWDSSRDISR
T9 sequence (Q13873 27-1038): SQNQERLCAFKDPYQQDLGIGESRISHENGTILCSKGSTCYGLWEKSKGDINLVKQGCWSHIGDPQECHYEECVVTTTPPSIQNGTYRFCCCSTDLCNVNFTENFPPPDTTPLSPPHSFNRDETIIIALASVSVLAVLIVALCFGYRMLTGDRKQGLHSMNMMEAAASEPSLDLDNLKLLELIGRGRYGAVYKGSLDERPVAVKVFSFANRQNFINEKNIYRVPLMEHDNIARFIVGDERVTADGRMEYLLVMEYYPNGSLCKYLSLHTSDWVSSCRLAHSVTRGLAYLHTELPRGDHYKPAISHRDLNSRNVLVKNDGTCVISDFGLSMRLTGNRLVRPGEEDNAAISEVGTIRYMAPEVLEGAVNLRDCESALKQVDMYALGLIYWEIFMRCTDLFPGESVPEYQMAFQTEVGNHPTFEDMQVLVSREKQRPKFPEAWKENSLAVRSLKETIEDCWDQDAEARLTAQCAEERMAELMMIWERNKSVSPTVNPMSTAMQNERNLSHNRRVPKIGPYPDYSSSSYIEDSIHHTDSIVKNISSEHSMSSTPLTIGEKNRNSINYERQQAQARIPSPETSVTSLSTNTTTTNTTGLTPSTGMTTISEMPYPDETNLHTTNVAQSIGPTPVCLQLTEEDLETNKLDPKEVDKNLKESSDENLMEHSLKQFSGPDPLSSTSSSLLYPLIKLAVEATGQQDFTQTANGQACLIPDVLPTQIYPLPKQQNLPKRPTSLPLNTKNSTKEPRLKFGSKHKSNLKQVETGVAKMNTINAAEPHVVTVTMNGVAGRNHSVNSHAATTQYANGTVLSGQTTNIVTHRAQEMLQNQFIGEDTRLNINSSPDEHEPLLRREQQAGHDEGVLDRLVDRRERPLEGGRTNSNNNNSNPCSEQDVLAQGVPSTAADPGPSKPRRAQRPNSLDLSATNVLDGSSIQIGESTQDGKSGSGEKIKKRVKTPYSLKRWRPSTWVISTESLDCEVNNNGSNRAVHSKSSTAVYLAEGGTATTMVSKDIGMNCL
T23 sequence (Q9NSY1 whole entry): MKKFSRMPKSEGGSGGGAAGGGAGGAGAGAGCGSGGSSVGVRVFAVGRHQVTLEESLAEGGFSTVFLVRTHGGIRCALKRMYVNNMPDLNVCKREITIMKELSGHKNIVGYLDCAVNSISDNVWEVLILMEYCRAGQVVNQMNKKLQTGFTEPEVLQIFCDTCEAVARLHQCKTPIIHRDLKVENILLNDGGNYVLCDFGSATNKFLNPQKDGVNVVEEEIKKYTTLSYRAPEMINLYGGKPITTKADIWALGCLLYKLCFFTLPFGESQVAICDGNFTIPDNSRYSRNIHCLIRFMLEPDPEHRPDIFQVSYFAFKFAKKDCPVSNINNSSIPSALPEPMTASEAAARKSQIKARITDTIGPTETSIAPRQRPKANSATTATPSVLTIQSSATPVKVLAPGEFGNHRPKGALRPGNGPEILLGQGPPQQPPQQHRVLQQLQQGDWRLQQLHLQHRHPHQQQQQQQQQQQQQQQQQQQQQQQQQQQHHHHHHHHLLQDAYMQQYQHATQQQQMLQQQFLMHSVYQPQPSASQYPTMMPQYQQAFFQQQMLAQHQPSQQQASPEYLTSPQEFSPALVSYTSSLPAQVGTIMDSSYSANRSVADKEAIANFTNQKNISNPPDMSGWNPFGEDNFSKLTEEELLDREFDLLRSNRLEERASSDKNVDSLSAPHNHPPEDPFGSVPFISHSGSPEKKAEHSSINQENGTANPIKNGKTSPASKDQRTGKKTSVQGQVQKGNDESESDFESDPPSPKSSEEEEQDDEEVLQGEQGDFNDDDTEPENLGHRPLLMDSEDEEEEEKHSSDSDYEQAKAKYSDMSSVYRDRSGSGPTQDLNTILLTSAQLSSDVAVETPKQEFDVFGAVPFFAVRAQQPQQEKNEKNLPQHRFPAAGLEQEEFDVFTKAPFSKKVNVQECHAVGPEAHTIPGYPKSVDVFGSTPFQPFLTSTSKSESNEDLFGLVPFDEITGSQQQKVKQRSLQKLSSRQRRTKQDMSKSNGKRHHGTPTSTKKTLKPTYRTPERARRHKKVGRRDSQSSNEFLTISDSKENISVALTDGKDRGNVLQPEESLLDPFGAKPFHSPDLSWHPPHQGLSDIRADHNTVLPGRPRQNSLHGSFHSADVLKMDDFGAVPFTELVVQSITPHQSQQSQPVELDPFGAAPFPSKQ
T31 sequence (P30530 26-894): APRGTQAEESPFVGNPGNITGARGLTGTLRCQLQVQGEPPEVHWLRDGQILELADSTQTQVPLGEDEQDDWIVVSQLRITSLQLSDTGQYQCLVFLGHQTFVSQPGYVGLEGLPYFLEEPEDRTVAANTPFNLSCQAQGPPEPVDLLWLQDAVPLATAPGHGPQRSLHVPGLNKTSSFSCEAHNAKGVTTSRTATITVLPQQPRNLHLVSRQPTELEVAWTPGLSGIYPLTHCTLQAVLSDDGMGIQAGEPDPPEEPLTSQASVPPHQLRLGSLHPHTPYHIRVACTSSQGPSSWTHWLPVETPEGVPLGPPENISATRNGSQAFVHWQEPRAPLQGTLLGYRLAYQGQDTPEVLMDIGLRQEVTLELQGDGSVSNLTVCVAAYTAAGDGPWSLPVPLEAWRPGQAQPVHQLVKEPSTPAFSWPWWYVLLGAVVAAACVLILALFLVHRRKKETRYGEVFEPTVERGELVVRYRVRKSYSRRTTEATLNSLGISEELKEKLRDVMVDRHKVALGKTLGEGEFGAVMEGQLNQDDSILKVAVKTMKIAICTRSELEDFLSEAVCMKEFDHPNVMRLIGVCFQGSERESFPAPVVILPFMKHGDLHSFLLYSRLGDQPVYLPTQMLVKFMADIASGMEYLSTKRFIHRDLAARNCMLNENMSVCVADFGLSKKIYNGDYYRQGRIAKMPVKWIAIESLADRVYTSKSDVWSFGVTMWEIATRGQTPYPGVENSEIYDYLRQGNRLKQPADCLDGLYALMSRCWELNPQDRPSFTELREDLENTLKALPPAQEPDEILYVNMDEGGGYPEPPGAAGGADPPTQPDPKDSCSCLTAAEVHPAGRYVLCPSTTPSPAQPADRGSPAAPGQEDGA
T41 sequence (P42345 1362-2549 limits assumed): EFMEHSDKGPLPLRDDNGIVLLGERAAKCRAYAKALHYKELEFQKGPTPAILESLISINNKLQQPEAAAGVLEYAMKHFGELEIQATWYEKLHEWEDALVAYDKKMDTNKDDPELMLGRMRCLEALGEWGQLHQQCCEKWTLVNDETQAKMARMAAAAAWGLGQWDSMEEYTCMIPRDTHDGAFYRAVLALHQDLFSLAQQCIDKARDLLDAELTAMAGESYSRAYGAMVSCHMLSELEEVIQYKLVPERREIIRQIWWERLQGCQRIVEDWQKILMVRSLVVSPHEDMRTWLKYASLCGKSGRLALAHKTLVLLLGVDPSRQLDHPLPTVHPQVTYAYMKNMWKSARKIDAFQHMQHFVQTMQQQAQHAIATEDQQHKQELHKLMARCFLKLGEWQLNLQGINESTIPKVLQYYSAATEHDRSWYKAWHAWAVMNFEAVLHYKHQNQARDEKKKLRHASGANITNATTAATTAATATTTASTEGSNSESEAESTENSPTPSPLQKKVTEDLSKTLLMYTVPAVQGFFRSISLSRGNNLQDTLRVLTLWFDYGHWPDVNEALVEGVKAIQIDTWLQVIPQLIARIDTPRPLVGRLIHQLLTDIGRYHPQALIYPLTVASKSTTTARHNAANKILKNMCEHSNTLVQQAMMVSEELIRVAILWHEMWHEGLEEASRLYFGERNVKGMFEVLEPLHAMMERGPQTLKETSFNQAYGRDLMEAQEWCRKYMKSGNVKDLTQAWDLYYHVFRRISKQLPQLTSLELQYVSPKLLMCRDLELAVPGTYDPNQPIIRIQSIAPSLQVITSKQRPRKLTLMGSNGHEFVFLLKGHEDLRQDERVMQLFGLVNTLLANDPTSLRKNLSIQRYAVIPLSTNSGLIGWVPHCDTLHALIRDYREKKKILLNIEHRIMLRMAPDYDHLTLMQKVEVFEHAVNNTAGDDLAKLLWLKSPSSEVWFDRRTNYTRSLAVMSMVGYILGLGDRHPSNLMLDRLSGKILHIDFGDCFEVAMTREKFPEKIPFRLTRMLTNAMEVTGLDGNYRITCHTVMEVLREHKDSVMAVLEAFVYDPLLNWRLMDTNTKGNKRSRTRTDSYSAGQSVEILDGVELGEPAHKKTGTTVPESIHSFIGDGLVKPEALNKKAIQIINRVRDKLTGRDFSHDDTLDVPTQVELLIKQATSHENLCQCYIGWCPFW

CN(C)Cc1cccc(Nc2ncc(Cl)c(-c3csc(C(=O)NN4CCOCC4)c3)n2)c1 [SKLB-D18, 4-(5-chloro-2-((3-((dimethylamino)methyl)phenyl)amino)pyrimidin-4-yl)-N-morpholinothiophene-2-carboxamide]
inhibition at 1 µM (Txk(h)): 26% | inhibition at 1 µM (PAK1(h)): 45% | inhibition at 1 µM (FAK(h)): 17% | inhibition at 1 µM (CDK3/cyclinE(h)): 16% | inhibition at 1 µM (PIP5K1a(h)): -5% | inhibition at 1 µM (Wee1B(h)): 49% | inhibition at 1 µM (ACTR2(h)): 10% | inhibition at 1 µM (MST1(h)): 45% | inhibition at 1 µM (BMPR2(h)): 21% | inhibition at 1 µM (PKCι(h)): 8% | inhibition at 1 µM (PAK5(h)): 26% | inhibition at 1 µM (NDR1(h)): 66% | inhibition at 1 µM (ZIPK(h)): 64% | inhibition at 1 µM (SLK(h)): 4% | inhibition at 1 µM (JAK2(h)): 67% | inhibition at 1 µM (IRR(h)): 57% | inhibition at 1 µM (ROCK-II(h)): 34% | inhibition at 1 µM (PKA(h)): 19% | inhibition at 1 µM (CK2α2(h)): 65% | inhibition at 1 µM (ATM(h)): 7% | inhibition at 1 µM (PhKγ2(h)): 19% | inhibition at 1 µM (IR(h), activated): 13% | inhibition at 1 µM (BIKe(h)): 52% | inhibition at 1 µM (MAP4K5(h)): 51% | inhibition at 1 µM (CDK17/cyclinY(h)): 57% | inhibition at 1 µM (CDK2/cyclinA(h)): 58% | inhibition at 1 µM (ALK1(h)): 20% | inhibition at 1 µM (CLK2(h)): 58% | inhibition at 1 µM (SRPK1(h)): -2% | inhibition at 1 µM (MLK4(h)): 24% | inhibition at 1 µM (Axl(h)): 36% | inhibition at 1 µM (Flt1(h)): 39% | inhibition at 1 µM (ASK1(h)): -5% | inhibition at 1 µM (CK2(h)): 68% | inhibition at 1 µM (CaMKIV(h)): 24% | inhibition at 1 µM [1]: 8% | inhibition at 1 µM (NEK11(h)): -4% | inhibition at 1 µM (eEF-2K(h)): -2% | inhibition at 1 µM (PKCε(h)): 14% | inhibition at 1 µM (EphB3(h)): 3% | inhibition at 1 µM (mTOR/FKBP12(h)): 8%
